16 molecules from ChEMBL document CHEMBL1143910, “Synthesis of guanidino analogues of PMPDAP and their immunobiological activity” (Bioorg Med Chem, 2008) can be followed below.

One series has as its system Maize streak virus. As to the kind of experiment: Antiviral activity against MSV. Type of series: functional.
The next series has as its system L1210. Put plainly: Cytotoxicity against mouse L1210 cells. Type of series: cell-based.
Series [1] in a line: Cytotoxicity against human HeLaS3 cells. The series is classed as cell-based. As to conditions: hela s3.
Series [2] deals with Human immunodeficiency virus 2. As to the kind of experiment: Antiviral activity against HIV2. The series is classed as functional, organism-based.
The subject of another series is L929. Put plainly: Cytotoxicity against mouse L929 cells. The series is classed as cell-based.
The test system of series [3] is Macrophage. Put plainly: Increase in IFN-gamma stimulated nitric oxide production in C57BL/6 mouse peritoneal macrophages at 100 uM after 24 hrs. The series is classed as functional, cell-based.
Series [4] concerns Human immunodeficiency virus 1. Put plainly: Antiviral activity against HIV1. Type of series: functional, organism-based.
Series [5] relates to Macrophage. Put plainly: Increase in IFN-gamma stimulated nitric oxide production in C57BL/6 mouse peritoneal macrophages at 10 to 25 uM after 24 hrs. Type of series: functional, cell-based.
Series [6] deals with PBMC. Put plainly: Activation of RANTES secretion in human PBMC at 50 uM after 16 hrs by ELISA. The series is classed as functional, cell-based. A general note: An ELISA detects its analyte on a solid surface through an enzyme-linked reagent.
The test system of series [7] is Macrophage. Put plainly: Activation of MIP1-alpha secretion in C57BL/6 mouse peritoneal macrophages at 100 uM after 16 hrs by ELISA. The series is classed as functional, cell-based.
Series [8] concerns PBMC. As to the kind of experiment: Activation of MIP1-alpha secretion in human PBMC at 50 uM after 16 hrs by ELISA. The series is classed as functional, cell-based.
Series [9] has as its system Macrophage. Put plainly: Activation of RANTES secretion in C57BL/6 mouse peritoneal macrophages at 100 uM after 16 hrs by ELISA. Type of series: functional, cell-based.
Series [10] in a line: Activation of TNFalpha secretion in C57BL/6 mouse peritoneal macrophages at 100 uM after 16 hrs by ELISA. The series is classed as functional, cell-based. Conditions: Macrophage.

Activity calls are given as the source filed them. No cut-off for these calls is given here.

For the molecule `C[C@@H](Cn1cnc2nc(N=C(N)N)ncc21)OCP(=O)(O)O`, the outcome (in the series with Maize streak virus; in series [2]; with Macrophage [3]; in series [4]) was inactive. Also, the Activity result (in the series on L1210; in series [1]; in the series on L929) was “Not Active” each time.

In the case of `C[C@H](Cn1cnc2c(N=C(N)N)nc(N)nc21)OCP(=O)(O)O`, the outcome (in the series with Macrophage [5]; in the series with PBMC [6]; with Macrophage [7]; in the series on PBMC [8]; with Macrophage [9]; in [10]) was Active. Further, in the series on Macrophage [3], the result was Active. The result (in the series on Maize streak virus; in [2]; in series [4]) was inactive. Moreover, the Activity entry (in the series on L1210; in series [1]; in the series with L929) was “Not Active” throughout.

As for `C[C@@H](Cn1cnc2cnc(N=C(N)N)nc21)OCP(=O)(O)O`, the outcome (in the series on Maize streak virus; in series [2]; in the series on Macrophage [3]; in series [4]) was inactive. For the same molecule, the Activity result (in the series on L1210; in series [1]; in the series on L929) was “Not Active” in each case.

`C[C@@H](Cn1cnc2ncnc(N=C(N)N)c21)OCP(=O)(O)O`: the result (with Maize streak virus; in series [2]; in the series on Macrophage [3]; in series [4]) was inactive. The Activity result (in the series on L1210; in series [1]; with L929) was “Not Active” throughout.

Turning to `C[C@@H](Cn1cnc2c(N=C(N)N)ncnc21)OCP(=O)(O)O`, the result (with Maize streak virus; in [2]; with Macrophage [3]; in series [4]) was inactive. For the same molecule, the Activity entry (in the series on L1210; in series [1]; with L929) was “Not Active” each time.

As for `C[C@H](Cn1cnc2ncnc(N=C(N)N)c21)OCP(=O)(O)O`, the result (in the series with Maize streak virus; in series [2]; with Macrophage [3]; in series [4]) was inactive. In addition, the Activity entry (in the series with L1210; in series [1]; in the series with L929) was “Not Active” throughout.

In the case of `C[C@H](Cn1cnc2cnc(N=C(N)N)nc21)OCP(=O)(O)O`, the outcome (with Maize streak virus; in series [2]; in the series on Macrophage [3]; in series [4]) was inactive. Besides, the Activity entry (in the series with L1210; in series [1]; in the series with L929) was “Not Active” throughout.

Turning to `C[C@H](Cn1cnc2c(N=C(N)N)ncnc21)OCP(=O)(O)O`, the result (in the series on Maize streak virus; in [2]; in the series on Macrophage [3]; in [4]) was inactive. The Activity result (in the series on L1210; in series [1]; in the series on L929) was “Not Active” throughout.

Take `C[C@H](Cn1cnc2nc(N=C(N)N)ncc21)OCP(=O)(O)O`: the outcome (in the series on Maize streak virus; in [2]; with Macrophage [3]; in series [4]) was inactive. Moreover, the Activity entry (with L1210; in [1]; with L929) was “Not Active” throughout.

On to `C[C@@H](Cn1cnc2nc(N)nc(N=C(N)N)c21)OCP(=O)(O)O`, for which the result (in the series with Maize streak virus; in series [2]; in series [4]) was inactive. Further, the Activity result (in the series with L1210; in [1]; in the series with L929) was “Not Active” throughout. Further, in the series with Macrophage [3], the result was Active.

Take `C[C@H](Cn1cnc2c(N)nc(N=C(N)N)nc21)OCP(=O)(O)O`: the outcome (in the series on Maize streak virus; in series [2]; in the series with Macrophage [3]; in [4]) was inactive. Moreover, the Activity entry (in the series with L1210; in [1]; with L929) was “Not Active” in each case.

With `C[C@@H](Cn1cnc2c(N=C(N)N)nc(N)nc21)OCP(=O)(O)O`, the outcome (in the series with Maize streak virus; in series [2]; in [4]) was inactive. Also, the Activity result (with L1210; in series [1]; in the series on L929) was “Not Active” each time. In addition, the outcome with Macrophage [3] was Active.

Turning to `C[C@@H](Cn1c(N=C(N)N)nc(N)c2ncnc1-2)OCP(=O)(O)O`, the result (in the series with Macrophage [5]; in the series with PBMC [6]; in the series with Macrophage [7]; with PBMC [8]; in the series on Macrophage [9]; in series [10]) was Active. Besides, in the series on Macrophage [3], the result was Active. In addition, the outcome (in the series with Maize streak virus; in series [2]; in series [4]) was inactive. The Activity result (in the series with L1210; in series [1]; in the series with L929) was “Not Active” in each case.

For `C[C@H](Cn1cnc2nc(N)nc(N=C(N)N)c21)OCP(=O)(O)O`, the result (in the series with Maize streak virus; in series [2]; in [4]) was inactive. In addition, the Activity result (in the series with L1210; in [1]; in the series on L929) was “Not Active” in each case. Also, the result in the series on Macrophage [3] was Active.

In the case of `C[C@H](Cn1c(N=C(N)N)nc(N)c2ncnc1-2)OCP(=O)(O)O`, the result (in the series with Maize streak virus; in [2]; in series [4]) was inactive. Besides, the Activity entry (with L1210; in series [1]; in the series with L929) was “Not Active” each time. The outcome in the series on Macrophage [3] was Active.

With `C[C@@H](Cn1cnc2c(N)nc(N=C(N)N)nc21)OCP(=O)(O)O`, the outcome (with Maize streak virus; in series [2]; in the series with Macrophage [3]; in series [4]) was inactive. The Activity result (in the series on L1210; in [1]; in the series on L929) was “Not Active” each time.
